Assay results published in patent US9931332B2, “Compositions and methods for treating primary effusion lymphoma” (University of Southern California, priority 2014, dated 2018).

Experiments:
[1] = target: cereblon (CRBN) (Homo sapiens, UniProt Q96SW2); settings: 48 h
Protocol: Cells were lysed in lysis buffer containing 20 mM sodium phosphate (pH 7.4), 150 mM NaCl, 0.1% Triton X-100, […], and 10% glycerol supplement with a protease inhibitor mixture tablet (Roche). Whole cell extracts were resolved by SD-polyacrylamide gel electrophoresis, transferred to nitrocellulose membrane, and probed with the indicated primary antibodies. Bound antibodies were detected with IRdye 680 or 800 (Licor biosciences) and blots were scanned with licor odyssey CLx imaging system (Licor biosciences).

[2] = system: PEL cell lines; assay: Cell viability, MTS assay; format: cell-based; settings: for PEL cell lines sensitive within physiologically achievable doses: 7 PEL cell lines, increasing concentrations; for sensitivity of the 5 PEL cell lines to recombinant IFN: BC-3, BCBL-1, JSC-1, BC-1 and VG-1, 5 days
Protocol: (§1) Cells from exponentially growing cultures were plated in untreated flat-bottom 96 well plates at a density of 5×10^3 cells/well, treated with an increasing concentration of the drugs and subsequently assessed for cell viability using the MTS reagent (3-4,5-dimethylthiazol-2yl)-5-(3-carboxy-methoxyphenyl)-2-(4-sulfophenyl)-2H-tetrazolium, inner salt) following the manufacturer's instructions (Promega). Percent cell survival was calculated based on the reading of cells grown in the presence of DMSO control. Experiments were performed in triplicate and have been repeated 2-3 times.

[3] = system: BC-3 and BCBL-1 cells; assay: Combination index (Chou and Talalay, calcusyn), MTS viability; format: cell-based; settings: low doses, 12 combinations each, all combination doses tested
Protocol: as §1

[4] = system: BJAB cells; assay: Cell viability, MTS assay; format: cell-based; settings: 5 days
Protocol: as §1

[5] = system: IL-6; assay: IL-6 ELISA in supernatants of BC-3 cells; format: cell-based, Human; settings: 12, 24 and 48 h
Protocol: IL-6 was measured in supernatants using BD OptEIA™ Human IL-6 ELISA set as per manufacturer's instructions.

[6] = system: BC-3 and BCBL-1 cells; assay: Genome-wide microarray analysis; settings: 5 μM, 24 h
Protocol: Two technical replicates per cell line per condition (8 samples total) were assayed on the Illumina Human HT12 BeadChip whole genome expression microarray, with coverage of 39809 coding transcripts and 3961 non-coding transcripts. Probe intensities were extracted directly from binary IDAT files using the ‘illuminaio’ package (Smith et al., 2013). Background correction and normalization was then performed using ‘limma’ package (Smyth, 2005). An estimate of the fraction of probes with detectable expression (approximately 47% of the probes present on the array) was extracted by comparing the negative control probe intensities with hybridization probe intensities; probes failing this cutoff were filtered from further analysis. An empirical Bayes linear model including treatment and cell-line specific effects was fitted to the filtered data, again using ‘limma’. […] Hierarchial clustering with Euclidean distance and centroid linkage was performed in R (http://www.R-project.org). A heat map of differences (corrected for cell-line-specific effects) was plotted.

[7] = system: BC-3 cells; assay: PEL orthotopic tumor model; format: in vivo, NOD.SCID mice; design: dose or concentration left out as unconfirmed; settings: once daily for 28 days, intraperitoneally
Protocol: A total of 2×10^7 BC-3 cells were injected intraperitoneally into female NOD.SCID mice (NCI Frederick, 6 weeks old). 5 days after tumor cells inoculation the mice were randomly divided in to 4 groups (n=7 each). […] (once daily), JQ-1 50 mg/kg b.w. (once daily) and the combination were administered intraperitoneally daily for 28 days. Then the animals were monitored for survival. Body weight gain was measured once in 3 days as a surrogate measure of tumor progression (Qin et al., 2014). The experiments were performed following the guidelines of institutional animal ethics committee.

[8] = system: IKKα/β, p100/p52 and RELB; assay: Immunoblot of NF-κB proteins; format: cell-based; settings: BC-3, BCBL-1, JSC-1 and DG-75 cells, increasing doses
Protocol: (§2) Cells were lysed in lysis buffer containing 20 mM sodium phosphate (pH 7.4), 150 mM NaCl, 0.1% Triton X-100, 0.2 M PMSF, and 10% glycerol supplement with a protease inhibitor mixture tablet (Roche). Whole cell extracts were resolved by SD-polyacrylamide gel electrophoresis, transferred to nitrocellulose membrane, and probed with the indicated primary antibodies. Bound antibodies were detected with IRdye 680 or 800 (Licor biosciences) and blots were scanned with licor odyssey CLx imaging system (Licor biosciences). Primary antibodies used in these experiments were from the following sources: PARP (9542), NF-κB2 (p100/p52; 4882) from Cell Signaling; IRF4 (6059), IKZF1 (13039), HSP90 (69703), IKKα/β (7607), RELB (226) from Santa Cruz Biotechnology; MYC (1472-1, Epitomics); tubulin (T9026), cereblon (HPA045910) from Sigma; GAPDH (1107018, Ambion), IKZF3 (6255, Imgenex) and BRD4 (a gift from Dr. Peter Howley, Harvard Medical School).

[9] = system: PEL cells; assay: Real-time qRT-PCR of mRNA expression; format: cell-based
Protocol: Real-time quantitative reverse transcript-polymerase chain reaction (qRT-PCR) was performed with SYBR Green using gene-specific PCR primers. Samples were run in triplicate, and PCR was performed by an ABI Step One Plus thermocycler (Applied Biosystems). GAPDH was used as housekeeping gene and qRT-PCR data (Ct values) was analyzed using the 2^−ΔΔCT method as described earlier (Zhao et al., 2007). The qRT-PCR data was presented as fold change in target gene expression±standard error.

[10] = system: PEL; settings: treated for 18 months so far (Antar et al., 2014); cited from earlier work
[11] = system: IKZF1 (Ikaros), IKZF3 (Aiolos); assay: Immunoblot of IKZF1 and IKZF3 expression; format: cell-based; settings: BC-3 and BCBL-1, MLN4924 pretreatment 1 h then IMiDs 15 h
Protocol: as §2

[12] = system: panel of hematological cancer cell lines; assay: Cell viability, MTS assay, panel of hematological cancer cell lines; format: cell-based; settings: 5 days, increasing concentrations
Protocol: as §1

[13] = BC-3, BCBL-1 and JSC-1, 5 μM, 24 h

Chain of cereblon (CRBN) (Q96SW2 whole entry): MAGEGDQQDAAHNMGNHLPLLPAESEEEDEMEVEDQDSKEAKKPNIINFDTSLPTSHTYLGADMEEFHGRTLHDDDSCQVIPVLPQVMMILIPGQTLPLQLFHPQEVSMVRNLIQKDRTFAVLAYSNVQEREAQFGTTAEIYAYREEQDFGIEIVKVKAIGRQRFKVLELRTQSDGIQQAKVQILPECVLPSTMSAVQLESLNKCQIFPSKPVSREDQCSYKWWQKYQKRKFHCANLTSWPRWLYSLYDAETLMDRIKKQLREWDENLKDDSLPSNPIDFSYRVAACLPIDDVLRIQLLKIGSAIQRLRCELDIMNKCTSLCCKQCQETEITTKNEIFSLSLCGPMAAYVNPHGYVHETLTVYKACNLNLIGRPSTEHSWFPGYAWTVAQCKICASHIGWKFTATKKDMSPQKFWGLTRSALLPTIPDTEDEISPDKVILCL

Nc1cccc2c1C(=O)N(C1CCC(=O)NC1=O)C2=O (stereo not shown) [pomalidomide]
CRBN level in BCBL-1 cells [1]: no change | level of cereblon in BC-3 cells [1]: slight decrease | PEL cell lines sensitive within physiologically achievable doses ([2]; 5 days): 6/7

COc1cc2c(cc1-c1c(C)noc1C)ncc1[nH]c(=O)n([C@H](C)c3ccccn3)c12 [IBET151]
synergy of lenalidomide with BRD4 inhibitor (combination index) [3]: highly synergistic

IFN-α
sensitivity of BC-3, BCBL-1 and JSC-1 to recombinant IFN ([2]; 5 days): highly sensitive | sensitivity of the 5 PEL cell lines to recombinant IFN [2]: sensitive | effect of recombinant IFN on BJAB [4]: very little effect

Nc1cccc2c1CN(C1CCC(=O)NC1=O)C2=O (stereo not shown) [lenalidomide]
IL-6 secretion by BC-3 cells [5]: did not have any significant effect | downregulated genes [6]: 390 genes | upregulated genes [6]: 602 genes | genes whose expression changed significantly (pFDR<0.05) ([6]; both cell lines): 992 genes | median survival [7]: 35 days | expression of IKKα/β, p100/p52 and RELB proteins [8]: did not have any significant effect | PEL cell lines sensitive within physiologically achievable doses ([2]; 5 days): 5/7 | mRNA levels of IKZF1 [9, 13]: moderately up-regulated | mRNA levels of IRF4, MYC and its target TERT [9, 13]: down-regulated mildly, and moderately | transcript levels of IFNs and interferon specific genes (ISGs) ([9]; BCBL-1 cells, 5 μM, 24 hours): upregulated | outcome of elderly HIV-negative, KSHV-positive PEL patient [10]: without any symptoms or evidence of disease progression

Cc1sc2c(c1C)C(c1ccc(Cl)cc1)=N[C@@H](CC(=O)OC(C)(C)C)c1nnc(C)n1-2 [JQ-1]
median survival [7]: 42 days | synergy of lenalidomide with BRD4 inhibitor (combination index) [3]: highly synergistic

NS(=O)(=O)OC[C@@H]1C[C@@H](n2ccc3c(N[C@H]4CCc5ccccc54)ncnc32)C[C@@H]1O [MLN4924]
effect on downregulation of IKZF1 by IMiDs [11]: completely blocked

COc1ccccc1S(=O)(=O)Nc1ccc2c(c1)CN(C)C(=O)N2 [PFI-1]
synergy of lenalidomide with BRD4 inhibitor (combination index) [3]: highly synergistic

IFN-γ: recombinant interferon γ
sensitivity of the 5 PEL cell lines to recombinant IFN [2]: sensitive | effect of recombinant IFN on BJAB [4]: without any significant effect

O=C1CCC(N2C(=O)c3ccccc3C2=O)C(=O)N1 (stereo not shown) [thalidomide]
effect on the growth of the cell lines [12]: did not have any major effect
